Source: PMC9618103, “Exploratory toxicology studies of 2,3-substituted imidazo[1,2-a]pyridines with antiparasitic and anti-inflammatory properties” (Toxicology Research, 2022)

Experiments:
Wistar rats [1] = experiment: Subacute toxicity: glomerular filtration rate (creatinine clearance) and serum creatinine; format: in vivo; settings: for Glomerular Filtration Rate / Serum Creatinine: rats, p.o., 14 days at 10% of LD50 (CCl4, APAP: once daily, 3 days), mean ± SEM, n = 6
Protocol: (§1) For toxicity tests, acclimatized rats were randomly allocated to 12 groups (n = 12 for the control and n = 6 for the rest groups). […] Meanwhile, the aforementioned vehicles (dose volume 2 mL/kg b.w.) were administered to 3 groups. […] The animals were then housed in individual metabolic cages to collect urine for a period of 6 h and then the volume was recorded. Afterward, blood samples were obtained and the serum was separated by centrifugation at 1,620 × g for 10 min at room temperature.
(§2) Serum and urinary creatinine were determined by the Jaffe method. With this value, evaluation was made of the fractional excretion of sodium (FES), fractional excretion of potassium (FEP), and fractional excretion of glucose.[30]^,[31] The GFR was calculated from clearance of endogenous creatinine using the conventional equation:where GFR (CCr) is the creatinine clearance rate (mL/min); UCr and SCr are the creatinine concentrations (mg/dL) in urine and serum, respectively; and φ is the urinary flow rate (UFR) (mL/min). To avoid the error from the tubular secretion of creatinine found in males, only female animals were used.

[2] = tested on: renal secretory pathway of organic anions; experiment: Active tubular secretion of organic acids (PAH uptake in kidney cortex slices); format: in vivo, rats; settings: for PAH t/m ratio: kidney cortex slices, PAH 1 mM, 1 h, 25 °C, rats, p.o., 14 days at 10% of LD50 (CCl4, APAP: once daily, 3 days), mean ± SEM, n = 6
Protocol: (§3) For toxicity tests, acclimatized rats were randomly allocated to 12 groups (n = 12 for the control and n = 6 for the rest groups). […] Meanwhile, the aforementioned vehicles (dose volume 2 mL/kg b.w.) were administered to 3 groups. […] Upon completion of the 14-day treatments and before sample collection, the bladders of animals were emptied by gentle pressure on the lower part of the abdomen to induce urination. The animals were then housed in individual metabolic cages to collect urine for a period of 6 h and then the volume was recorded. Afterward, blood samples were obtained and the serum was separated by centrifugation at 1,620 × g for 10 min at room temperature.
p-Aminohippuric acid (PAH) was used as an indicator of the renal secretory pathway of organic anions. Kidneys were extracted and immediately submerged in Ringer solution (pH = 7.4 and mOsm = 290 ± 10 mOsm/kg) under constant bubbling with O2/CO2 (95/5%). The kidneys were decapsulated and slices of the kidney cortex were obtained, which were then incubated in Ringer solution containing PAH (1 mM) for 1 h at 25 °C under constant bubbling with O2/CO2 (95/5%). The levels of PAH were quantified with the Bratton-Marshall method and results were expressed as the PAH tissue/medium ratio (PAH t/m ratio).[31]^,[32]

Wistar rats [3] = experiment: Subacute toxicity: water and electrolyte balance (osmolality, sodium, potassium, urinary flow); format: in vivo; settings: for osmolar clearance, change in words / freewater clearance, change in words: compared to the control group; for freewater clearance, change in words: significant by PLS VIP and ANOVA; for Filtered Load of Potassium / Filtered Load of Sodium / Fractional Excretion of Potassium / Fractional Excretion of Sodium / Serum Osmolality / Serum Potassium / Serum Sodium / U/S Osm ratio / Urinary Flow Rate / Urinary Potassium Excretion / Urinary Sodium Excretion: rats, p.o., 14 days at 10% of LD50 (CCl4, APAP: once daily, 3 days), mean ± SEM, n = 6
Protocol: as §1
Osmolality of serum and urine were assessed (in triplicate) by using a vapor pressure osmometer (Wescor 5500, Logan, United States). U/S ratio as well as osmolar (COsm) and free water clearances were calculated via conventional equations:where UOsm and SOsm are the osmolality values (mOsm/Kg) in urine and serum, respectively, and φ is the UFR (mL/min).
(§4) The levels of sodium and potassium were measured in urine and serum using a flame photometer (Corning 400, Medfield, United States). Calculation was made of the clearance, fractional excretion, and filtered load of sodium (FLS), filtered load of potassium (FLP), and filtered load of glucose (FLG) using the conventional equations:where CX is the clearance rate of X (mL/min), CCr is the creatinine clearance rate (mL/min), UX and SX are the […] concentrations of X, respectively, φ is the UFR (mL/min), FEX is the fractional excretion (%) of X, and FLX is the filtered load of X in μEq/min (Na^+ or K^+) or mg/min (glucose).

Wistar rats [4] = experiment: Subacute toxicity: serum alanine aminotransferase and alkaline phosphatase activity; format: in vivo; settings: for Alanine Aminotransferase / Alkaline Phosphatase: serum, rats, p.o., 14 days at 10% of LD50 (CCl4, APAP: once daily, 3 days), mean ± SEM, n = 6
Protocol: as §3
The activities of serum alanine aminotransferase (ALT) and alkaline phosphatase (ALP) were measured with standard kits (RANDOX, Laboratories Ltd, UK).

NIH mice = experiment: Acute oral toxicity, median lethal dose (LD50); format: in vivo; settings: for Category (GHS acute oral toxicity hazard category) / Hazard statement (GHS): based on oral LD50, according to GHS [39]; for Oral LD50: female NIH mice, single oral dose, 14 days observation
Protocol: All treatments were administrated orally (p.o.) according to the scheme mentioned below.
Acute toxicity tests were performed in order to measure the median lethal dose (LD50). After acclimatization, mice were randomly allocated to ten groups (n = 4), including the control group (e.g. water, Tween 80, or PO) and the experimental groups, each with a single dose of one of the IMPYs at 4 levels of dose (0.5, 1.0, 2.0, and 4.0 g/kg b.w.).
Animals were food deprived overnight prior to administration of the chemical compounds or vehicles, and food was returned 4 h after dosing. Animals had access to water ad libitum throughout the study.[27]^,[28]

Wistar rats [5] = experiment: Hepatic and renal lipid peroxidation (lipid-soluble fluorescence); format: in vivo; settings: for Renal Lipoperoxidation: kidney; for Renal Lipoperoxidation / Hepatic Lipoperoxidation: rats, p.o., 14 days at 10% of LD50 (CCl4, APAP: once daily, 3 days), mean ± SEM, n = 6; for Hepatic Lipoperoxidation: liver
Protocol: as §3
Lipid peroxidation (LPO) was evaluated by the formation of lipid-soluble fluorescence, as previously described. Briefly, kidney and liver tissues were homogenized in 3 and 5 mL of phosphate buffer (0.2 M, pH = 7.4), respectively. A volume of 1 mL (kidney) or 0.8 mL (liver) of the homogenates was added to 7 mL of chloroform-methanol (2:1, v/v), and after 15 s of vortex mixing, the resulting mixture was cooled using an ice bath for 30 min to allow for phase separation. The fluorescence of the organic phase was measured using a Shimadzu fluorometer (Japan; λex = 370 nm; λem = 430 nm), whose sensitivity was adjusted to 140 fluorescence units by using 1 μg/mL of quinine sulfate in 50 mM H2SO4. The results were expressed as relative fluorescence units per milligram of protein.[33]
(§5) The protein concentration in homogenates was measured by the Bradford method.[29]

Wistar rats [6] = experiment: Subacute toxicity: serum and urine glucose, urinary protein excretion; format: in vivo; settings: for Filtered Load of Glucose / Fractional Excretion of Glucose / Serum Glucose / Urinary Glucose Excretion / Urinary Protein Excretion: rats, p.o., 14 days at 10% of LD50 (CCl4, APAP: once daily, 3 days), mean ± SEM, n = 6
Protocol: as §1
Serum and urine glucose concentration were calculated using GOD-PAP kits (RANDOX, Laboratories Ltd, UK). Urinary protein was quantified using the Bradford method.[29]
as §2, §4

Wistar rats [7] = experiment: Hepatic and renal reactive oxygen species (DCF formation); format: in vivo; settings: rats, p.o., 14 days at 10% of LD50 (CCl4, APAP: once daily, 3 days), mean ± SEM, n = 6; for Renal ROS: kidney; for Hepatic ROS: liver
Protocol: as §3
Reactive oxygen species (ROS) were measured by formation of 2′,7′-dichlorofluorescein (DCF). An aliquot of 10 μL (kidney) or 5 μL (liver) of the homogenates was added to 1,940 or 1,945 μL of TRIS:HEPES (18:1) and was incubated in the presence of 50 μL of 2′,7′-dichlorofluorescein diacetate for 1 h at 37 °C. In order to quench the reaction, the mixture was chilled using an ice bath. The fluorescence was measured using a Shimadzu fluorometer (Japan; λex = 488 nm; λem = 525 nm). The results were expressed as nM DCF formed per mg protein/h.[33]
as §5

[8] = in comparison with the control group

SMILES	Glomerular Filtration Rate (Wistar rats [1])	Serum Creatinine (Wistar rats [1])	PAH t/m ratio [2]	Filtered Load of Potassium (Wistar rats [3])	Filtered Load of Sodium (Wistar rats [3])	Fractional Excretion of Potassium (Wistar rats [3])	Fractional Excretion of Sodium (Wistar rats [3])	Serum Osmolality (Wistar rats [3])	Serum Potassium (Wistar rats [3])	Serum Sodium (Wistar rats [3])	U/S Osm ratio (Wistar rats [3])	Urinary Flow Rate (Wistar rats [3])	Urinary Potassium Excretion (Wistar rats [3])	Urinary Sodium Excretion (Wistar rats [3])	Alanine Aminotransferase (Wistar rats [4])	Alkaline Phosphatase (Wistar rats [4])	Category (GHS acute oral toxicity hazard category) (NIH mice)	Hazard statement (GHS) (NIH mice)	Oral LD50 (NIH mice)	Renal Lipoperoxidation (Wistar rats [5])	also measured
N#Cc1nc2ccccn2c1[N+](=O)[O-] [Compound 2b, 3-nitroimidazo[1,2-a]pyridine-2-carbonitrile]	1.81 ± 0.26 mL/min	0.56 ± 0.08 mg/dL	2.11 ± 0.20	10.21 ± 1.12 µEq/min	267.24 ± 51.35 µEq/min	13.47 ± 1.95%	0.88 ± 0.29%	288.93 ± 1.51 mOsm/kg	5.79 ± 0.31 mEq/L	141.65 ± 15.47 mEq/L	3.44 ± 0.10	8.29 ± 1.67 µL/min	1.38 ± 0.21 µEq/min	1.87 ± 0.39 µEq/min	44.90 ± 2.46 U/L	192.21 ± 38.07 U/L	4	Harmful if swallowed	1.606 g/kg b.w.	0.47 ± 0.03 URF/mg protein	urinary sodium excretion (USE), change in words (Wistar rats [3]; 2b versus control, tween 80, and 2a, 4 versus control): higher; potassium clearance, change in words (Wistar rats [3]; compared to the control (2b also versus 2a)): increased; urinary potassium excretion (UPE), change in words (Wistar rats [3]; compared to the control and 2a): increased; osmolar clearance, change in words (Wistar rats [3]): greater; freewater clearance, change in words (Wistar rats [3]): lower; UFR (urinary flow rate), change in words (Wistar rats [3]; [8]): increased; FES (fractional excretion of sodium), change in words (Wistar rats [3]; in comparison with tween 80): increased; sodium clearance, change in words (Wistar rats [3]; versus control, tween 80, and 2a): higher; serum ALP, change in words (Wistar rats [4]; compared to the control (CCl4 also versus PO)): greater; renal LPO, change in words (Wistar rats [5]; compared to the control group (CCl4 also versus PO)): greater; Hepatic Lipoperoxidation (Wistar rats [5]): 0.64 ± 0.10 URF/mg protein; Filtered Load of Glucose (Wistar rats [6]): 2.29 ± 0.33 mg/min; Fractional Excretion of Glucose (Wistar rats [6]): 0.01 ± 1.8E-3%; Serum Glucose (Wistar rats [6]): 126.47 ± 5.03 mg/dL; Urinary Glucose Excretion (Wistar rats [6]): 109.06 ± 24.61 ng/min; Urinary Protein Excretion (Wistar rats [6]): 0.86 ± 0.20 µg/min; FLG (filtered load of glucose), change in words (Wistar rats [6]; versus 2a): increased; Renal ROS (Wistar rats [7]): 225.78 ± 56.22 nM de DCF/mg protein/h; Hepatic ROS (Wistar rats [7]): 208.65 ± 30.24 nM de DCF/mg protein/h
O=C(O)c1cn2ccccc2n1 [Compound 3a, imidazo[1,2-a]pyridine-2-carboxylic acid]	0.28 ± 0.04 mL/min	1.05 ± 0.05 mg/dL	2.25 ± 0.10	1.98 ± 0.44 µEq/min	40.07 ± 7.62 µEq/min	27.89 ± 6.73%	0.53 ± 0.16%	304.73 ± 1.82 mOsm/kg	6.83 ± 0.54 mEq/L	148.12 ± 3.02 mEq/L	3.18 ± 0.61	2.20 ± 0.50 µL/min	0.50 ± 0.12 µEq/min	0.17 ± 0.05 µEq/min	25.62 ± 1.27 U/L	93.76 ± 13.08 U/L	5	May be harmful if swallowed	> 2.000 g/kg b.w.	0.29 ± 0.03 URF/mg protein	GFR, change in words (Wistar rats [1]; in comparison to the control group): lower; osmolar clearance, change in words (Wistar rats [3]): lower; freewater clearance, change in words (Wistar rats [3]): greater; FLS (filtered load of sodium), change in words (Wistar rats [3]; [8]): decreased; Hepatic Lipoperoxidation (Wistar rats [5]): 0.79 ± 0.03 URF/mg protein; FEG (fractional excretion of glucose), change in words (Wistar rats [6]; compared to control values): increased; FLG (filtered load of glucose), change in words (Wistar rats [6]; compared to control values): reduced; Filtered Load of Glucose (Wistar rats [6]): 0.22 ± 0.03 mg/min; Fractional Excretion of Glucose (Wistar rats [6]): 0.05 ± 0.01%; Serum Glucose (Wistar rats [6]): 80.56 ± 2.31 mg/dL; Urinary Glucose Excretion (Wistar rats [6]): 92.91 ± 12.35 ng/min; Urinary Protein Excretion (Wistar rats [6]): 0.69 ± 0.14 µg/min; Renal ROS (Wistar rats [7]): 159.65 ± 14.96 nM de DCF/mg protein/h; Hepatic ROS (Wistar rats [7]): 349.63 ± 18.87 nM de DCF/mg protein/h
O=C(O)c1nc2ccccn2c1[N+](=O)[O-] [Compound 3b, 3-nitroimidazo[1,2-a]pyridine-2-carboxylic acid]	0.63 ± 0.08 mL/min	0.57 ± 0.12 mg/dL	1.92 ± 0.23	4.15 ± 0.53 µEq/min	90.75 ± 12.03 µEq/min	11.63 ± 2.44%	0.38 ± 0.05%	293.74 ± 2.06 mOsm/kg	6.69 ± 0.40 mEq/L	144.61 ± 3.41 mEq/L	3.21 ± 0.39	3.75 ± 0.75 µL/min	0.43 ± 0.07 µEq/min	0.34 ± 0.06 µEq/min	32.76 ± 5.37 U/L	56.63 ± 6.67 U/L	5	May be harmful if swallowed	> 2.000 g/kg b.w.	0.44 ± 0.09 URF/mg protein	PAH t/m ratio, change in words ([2]; versus control (2a also versus Tween 80 and 2b)): decreased; Hepatic Lipoperoxidation (Wistar rats [5]): 0.80 ± 0.03 URF/mg protein; Filtered Load of Glucose (Wistar rats [6]): 0.74 ± 0.09 mg/min; Fractional Excretion of Glucose (Wistar rats [6]): 0.04 ± 3.7E-3%; Serum Glucose (Wistar rats [6]): 121.37 ± 8.03 mg/dL; Urinary Glucose Excretion (Wistar rats [6]): 262.45 ± 19.41 ng/min; Urinary Protein Excretion (Wistar rats [6]): 1.18 ± 0.23 µg/min; Renal ROS (Wistar rats [7]): 184.33 ± 42.31 nM de DCF/mg protein/h; Hepatic ROS (Wistar rats [7]): 290.96 ± 40.60 nM de DCF/mg protein/h
